Bridge positions count the residues as written; N and C are the ends. Square brackets hold non-standard residues; d marks the D form. Peptide text beside a SMILES is read from it. S5 = C=CCCC[C@](C)(N)C(=O)O
Legend:
[1] = biological target: T1, TRB3/MDM2 protein interaction (Homo sapiens, UniProt Q96RU7); experiment: Co-immunoprecipitation: inhibition of binding of MDM2 to TRB3 in BEAS-2B cells; assay type: cell-based; conditions: BEAS-2B cells with TRB3 expression plasmid, 1 mg/mL polypeptide, 12 hours, co-IP with MDM2 antibody
T1 construct: host or cells: BEAS-2B
T1 sequence (Q96RU7 1-358): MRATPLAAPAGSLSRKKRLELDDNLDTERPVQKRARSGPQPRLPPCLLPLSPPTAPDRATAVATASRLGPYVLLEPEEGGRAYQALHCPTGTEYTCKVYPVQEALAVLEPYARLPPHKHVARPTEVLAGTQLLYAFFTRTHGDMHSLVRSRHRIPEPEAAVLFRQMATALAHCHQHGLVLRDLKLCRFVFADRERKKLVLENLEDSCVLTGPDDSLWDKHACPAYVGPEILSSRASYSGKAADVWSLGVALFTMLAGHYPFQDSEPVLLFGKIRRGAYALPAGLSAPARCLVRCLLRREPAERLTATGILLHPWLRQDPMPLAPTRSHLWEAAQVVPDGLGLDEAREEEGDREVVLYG
Protocol: 1. Human lung epithelial BEAS-2B cells (purchased from Institute of Basic Medical Sciences, Chinese Academy of Medical Sciences) were seeded in a 90 mm^2 culture dish. After the cells were adhered to the wall of culture dish, the TRB3 expression plasmid were transferred to the cells according to the method described in Example 5. After 24 hours, 1 mg/mL of the polypeptides MR2, S1, S2, S3, S4, S5, S6, S7, S8, S9, S10 or S11 prepared in Example 1 were added respectively, and the cells were incubated for 12 hours in a 37° C. incubator and then harvested.
2. Co-immunoprecipitation with MDM2 antibody was performed according to the method described in Example 3, followed by detection using TRB3 antibody.

[2] = test system: mice with bleomycin-induced pulmonary fibrosis; experiment: HE staining pathomorphology and inflammatory score of bleomycin-induced pulmonary fibrosis; assay type: in vivo, C57BL/6 mice; conditions: 2 mg/kg i.p., after 28 days, grade 0-5; for Inflammatory score: Table 3 groups; for Inflammatory scoring: Table 9 groups
Protocol: Male C57BL/6 mice were fasted overnight, then anesthetized with 45 mg/kg sodium pentobarbital by injection intraperitoneally (i.p.), and intratracheally injected with bleomycin at a dose of 3 U/kg. The specific operation steps are as follows: cut the neck skin of the mouse with as little trauma as possible, expose the trachea with the assistance of elbow ophthalmic forceps, puncture the trachea and inject about 50 μL of bleomycin into the trachea with a microsyringe, rotate the mouse quickly and stand it upright for 5 minutes in order to make bleomycin evenly enter the left and right lobe, thereby constructing an animal model. The whole operation was performed at a surgical table at about […]. Mice in the sham operation group were intratracheally injected with an equal amount of physiological saline for injection.
General tissue changes and tissue products can be visualized by HE staining method, namely Hematoxylin and Eosin staining method, which is the most commonly used staining method for morphology. Among them, hematoxylin dyeing solution is an alkaline dyeing solution, which mainly makes the chromatin in the nucleus and the ribosome in the cytoplasm purple blue; eosin is an acid dye, which mainly makes the components in the cytoplasm and extracellular matrix red. Pulmonary fibrosis models were made according to the method described in Example 2 and administered in groups according to Table 3. After 28 days, the right lower lobe of lung tissue of the experimental animals was taken, and fixed with 4% (v/v) paraformaldehyde and embedded in paraffin. Section was performed on the largest cross-section of the paraffin block in which the lung tissue embedded, and basic pathological changes was observed through HE staining. […] The administration of polypeptides S1-S11 can reduce lung inflammation caused by bleomycin, and effectively ameliorate lung injury and restore normal lung structure.
The inflammatory grading was observed according to the results of HE staining, and the criteria were as follows (grade 0-5): grade “0”: normal tissue; grade “1”: extremely small inflammatory changes; grade “2”: mild to moderate inflammatory changes without apparent destruction of lung tissue structure; grade “3”: moderate inflammatory injury (thickening of alveolar diaphragm); grade “4”: moderate to severe inflammatory injury with formation of tissue mass, or the normal structure of lung tissue was destroyed by localized pneumonia area; grade “5”: severe inflammatory injury, severe destruction of the localized lung tissue structure, resulting in closure of lumen.
Pulmonary fibrosis models were made according to the method described in Example 2 and administered in groups according to Table 9. After 28 days, the right lower lobe of lung tissue of the experimental animals was taken, and fixed by 4% (v/v) paraformaldehyde and embedded in paraffin. Section was performed on the largest cross-section of the paraffin block in which the lung tissue embedded, and basic pathological changes was observed through HE staining.

| Compound | interaction of TRB3 and MDM2 protein (FIG. 5, in words) [1] | Inflammatory score [2] | Inflammatory scoring [2] |
| --- | --- | --- | --- |
| CSCC[C@H](NC(=O)[C@H](CC(C)C)NC(=O)[C@@H](N)Cc1c[nH]cn1)C(=O)N[C@@H](C)C(=O)N[C@@H](CS)C(=O)N[C@@H](Cc1ccccc1)C(=O)N[C@H](C(=O)N[C@@H](CS)C(=O)N[C@@H](C)C(=O)N[C@@H](CCCCN)C(=O)N[C@@H](CCCCN)C(=O)N[C@@H](CC(C)C)C(=O)N[C@@H](CCCCN)C(=O)N[C@@H](CCCCN)C(=O)N[C@@H](CCCNC(=N)N)C(=O)O)[C@@H](C)O [MR2] (H-HLMACFTCAKKLKKR-OH; N-terminus and C-terminus assumed) | interrupted | 4 | – |
| CSCC[C@@H]1NC(=O)[C@H](CC(C)C)NC(=O)[C@@](C)(N)CCCC=CCCC[C@@](C)(C(=O)N[C@@H](Cc2ccccc2)C(=O)N[C@H](C(=O)N[C@@H](CS)C(=O)N[C@@H](C)C(=O)N[C@@H](CCCCN)C(=O)N[C@@H](CCCCN)C(=O)N[C@@H](CC(C)C)C(=O)N[C@@H](CCCCN)C(=O)N[C@@H](CCCCN)C(=O)N[C@@H](CCCNC(=N)N)C(=O)O)[C@@H](C)O)NC(=O)[C@H](C)NC1=O [S1, S5-Leu-Met-Ala-S5-Phe-Thr-Cys-Ala-Lys-Lys-Leu-Lys-Lys-Arg] (H-[S5]LMA[S5]FTCAKKLKKR-OH; staple 1-5; N-terminus and C-terminus assumed) | interrupted | 2.667 | – |
| CSCC[C@@H]1NC(=O)[C@@](C)(NC(=O)[C@@H](N)Cc2c[nH]cn2)CCCC=CCCC[C@@](C)(C(=O)N[C@H](C(=O)N[C@@H](CS)C(=O)N[C@@H](C)C(=O)N[C@@H](CCCCN)C(=O)N[C@@H](CCCCN)C(=O)N[C@@H](CC(C)C)C(=O)N[C@@H](CCCCN)C(=O)N[C@@H](CCCCN)C(=O)N[C@@H](CCCNC(=N)N)C(=O)O)[C@@H](C)O)NC(=O)[C@H](CS)NC(=O)[C@H](C)NC1=O [S2, His-S5-Met-Ala-Cys-S5-Thr-Cys-Ala-Lys-Lys-Leu-Lys-Lys-Arg] (H-H[S5]MAC[S5]TCAKKLKKR-OH; staple 2-6; N-terminus and C-terminus assumed) | interrupted | 2.667 | – |
| CC(C)C[C@H](NC(=O)[C@H](CCCCN)NC(=O)[C@H](CCCCN)NC(=O)[C@H](C)NC(=O)[C@H](CS)NC(=O)[C@]1(C)CCCC=CCCC[C@](C)(NC(=O)[C@H](CC(C)C)NC(=O)[C@@H](N)Cc2c[nH]cn2)C(=O)N[C@@H](C)C(=O)N[C@@H](CS)C(=O)N[C@@H](Cc2ccccc2)C(=O)N1)C(=O)N[C@@H](CCCCN)C(=O)N[C@@H](CCCCN)C(=O)N[C@@H](CCCNC(=N)N)C(=O)O [S3, His-Leu-S5-Ala-Cys-Phe-S5-Cys-Ala-Lys-Lys-Leu-Lys-Lys-Arg] (H-HL[S5]ACF[S5]CAKKLKKR-OH; staple 3-7; N-terminus and C-terminus assumed) | interrupted | 2.5 | – |
| CSCC[C@H](NC(=O)[C@H](CC(C)C)NC(=O)[C@@H](N)Cc1c[nH]cn1)C(=O)N[C@@]1(C)CCCC=CCCC[C@@](C)(C(=O)N[C@@H](C)C(=O)N[C@@H](CCCCN)C(=O)N[C@@H](CCCCN)C(=O)N[C@@H](CC(C)C)C(=O)N[C@@H](CCCCN)C(=O)N[C@@H](CCCCN)C(=O)N[C@@H](CCCNC(=N)N)C(=O)O)NC(=O)[C@H]([C@@H](C)O)NC(=O)[C@H](Cc2ccccc2)NC(=O)[C@H](CS)NC1=O [S4, His-Leu-Met-S5-Cys-Phe-Thr-S5-Ala-Lys-Lys-Leu-Lys-Lys-Arg] (H-HLM[S5]CFT[S5]AKKLKKR-OH; staple 4-8; N-terminus and C-terminus assumed) | interrupted | 2.833 | – |
| CSCC[C@H](NC(=O)[C@H](CC(C)C)NC(=O)[C@@H](N)Cc1c[nH]cn1)C(=O)N[C@@H](C)C(=O)N[C@@]1(C)CCCC=CCCC[C@@](C)(C(=O)N[C@@H](CCCCN)C(=O)N[C@@H](CCCCN)C(=O)N[C@@H](CC(C)C)C(=O)N[C@@H](CCCCN)C(=O)N[C@@H](CCCCN)C(=O)N[C@@H](CCCNC(=N)N)C(=O)O)NC(=O)[C@H](CS)NC(=O)[C@H]([C@@H](C)O)NC(=O)[C@H](Cc2ccccc2)NC1=O [S5, His-Leu-Met-Ala-S5-Phe-Thr-Cys-S5-Lys-Lys-Leu-Lys-Lys-Arg] (H-HLMA[S5]FTC[S5]KKLKKR-OH; staple 5-9; N-terminus and C-terminus assumed) | interrupted | 2.333 | – |
| CSCC[C@H](NC(=O)[C@H](CC(C)C)NC(=O)[C@@H](N)Cc1c[nH]cn1)C(=O)N[C@@H](C)C(=O)N[C@@H](CS)C(=O)N[C@@]1(C)CCCC=CCCC[C@@](C)(C(=O)N[C@@H](CCCCN)C(=O)N[C@@H](CC(C)C)C(=O)N[C@@H](CCCCN)C(=O)N[C@@H](CCCCN)C(=O)N[C@@H](CCCNC(=N)N)C(=O)O)NC(=O)[C@H](C)NC(=O)[C@H](CS)NC(=O)[C@H]([C@@H](C)O)NC1=O [S6, His-Leu-Met-Ala-Cys-S5-Thr-Cys-Ala-S5-Lys-Leu-Lys-Lys-Arg] (H-HLMAC[S5]TCA[S5]KLKKR-OH; staple 6-10; N-terminus and C-terminus assumed) | interrupted | 3 | – |
| CSCC[C@H](NC(=O)[C@H](CC(C)C)NC(=O)[C@@H](N)Cc1c[nH]cn1)C(=O)N[C@@H](C)C(=O)N[C@@H](CS)C(=O)N[C@@H](Cc1ccccc1)C(=O)N[C@@]1(C)CCCC=CCCC[C@@](C)(C(=O)N[C@@H](CC(C)C)C(=O)N[C@@H](CCCCN)C(=O)N[C@@H](CCCCN)C(=O)N[C@@H](CCCNC(=N)N)C(=O)O)NC(=O)[C@H](CCCCN)NC(=O)[C@H](C)NC(=O)[C@H](CS)NC1=O [S7, His-Leu-Met-Ala-Cys-Phe-S5-Cys-Ala-Lys-S5-Leu-Lys-Lys-Arg] (H-HLMACF[S5]CAK[S5]LKKR-OH; staple 7-11; N-terminus and C-terminus assumed) | interrupted | 2 | – |
| CSCC[C@H](NC(=O)[C@H](CC(C)C)NC(=O)[C@@H](N)Cc1c[nH]cn1)C(=O)N[C@@H](C)C(=O)N[C@@H](CS)C(=O)N[C@@H](Cc1ccccc1)C(=O)N[C@H](C(=O)N[C@@]1(C)CCCC=CCCC[C@@](C)(C(=O)N[C@@H](CCCCN)C(=O)N[C@@H](CCCCN)C(=O)N[C@@H](CCCNC(=N)N)C(=O)O)NC(=O)[C@H](CCCCN)NC(=O)[C@H](CCCCN)NC(=O)[C@H](C)NC1=O)[C@@H](C)O [S8, His-Leu-Met-Ala-Cys-Phe-Thr-S5-Ala-Lys-Lys-S5-Lys-Lys-Arg] (H-HLMACFT[S5]AKK[S5]KKR-OH; staple 8-12; N-terminus and C-terminus assumed) | interrupted | 2.833 | – |
| S19: chimeric polypeptide Pep2-MR2, amino acid sequence SEQ ID NO: 19 (HLYVSPWGGHLMACFTCAKKLKKR; chimeric polypeptide Pep2-MR2 S19) | – | – | 1.833 |
| S20: chimeric polypeptide TAT-MR2, amino acid sequence SEQ ID NO: 20 (YGRKKRRQRRRGGHLMACFTCAKKLKKR; chimeric polypeptide TAT-MR2 S20) | – | – | 2.333 |
| S21: chimeric polypeptide Antp-MR2, amino acid sequence SEQ ID NO: 21 (RQIKIWFQNRRMKWKKGGHLMACFTCAKKLKKR; chimeric polypeptide Antp-MR2 S21) | – | – | 2.667 |

From patent US20210179680A1, “POLYPEPTIDE, DERIVATIVES THEREOF, AND APPLICATION THEREOF IN PREPARATION OF DRUGS HAVING RESISTANCE TO PULMONARY FIBROSIS” (priority 2016, published 2021)
